Experimental data taken from ChEMBL document CHEMBL4888484, “Replenishing the malaria drug discovery pipeline: Screening and hit evaluation of the MMV Hit Generation Library 1 (HGL1) against asexual blood stage Plasmodium falciparum ,using a nano luciferase reporter read-out” (2022).

What was measured:
[1] = system: Plasmodium falciparum; assay: Hit confirmation in dose-response curve in Dd2 pLDH assay, at 72h; type: functional, organism-based; design: timepoint 72 hour; conditions: Dd2, Erythrocyte
[2] = Hit confirmation in dose-response curve in HepG2 cytotoxicity assay, at 72h; type: toxicity, cell-based; design: timepoint 72 hour; conditions: human, HepG2 cells
[3] = system: Plasmodium falciparum; assay: Hit confirmation in dose-response curve in NF54 pLDH assay, at 72h; type: functional, organism-based; design: timepoint 72 hour; conditions: NF54, Erythrocyte
[4] = system: Plasmodium falciparum; assay: Hit confirmation in dose-response curve in NF54 nanoGlo assay, at 12h; type: functional, organism-based, Erythrocyte; design: timepoint 12 hour; conditions: Plasmodium falciparum, NF54, Erythrocyte, 12 h
[5] = system: Plasmodium falciparum; assay: Hit confirmation in dose-response curve in NF54 nanoGlo assay, at 72h; type: functional, organism-based, Erythrocyte; design: timepoint 72 hour; conditions: Plasmodium falciparum, NF54, Erythrocyte, 72 h

Structure (SMILES) | IC50 [1] | IC50 at 72 h [2] | IC50 [3] | IC50 [4] | IC50 [5]
O[C@@H](CNCc1ccsc1C(F)(F)F)c1cc(Cl)c2c(c1)OCCO2 | 3.47 µM | > 10 µM | 6.46 µM | 7.24 µM | 3.16 µM
C=CCCC(CN1C[C@H]2CC=CC[C@H]2C1)Oc1ncc(F)cn1 (stereo not given in full) | > 10 µM | > 10 µM | 0.0224 µM | 7.41 µM | 0.0178 µM
COc1ccc2c(/C=C/c3cc[n+](C)cc3)cn(Cc3ccccc3)c2c1 | 1.26 µM | > 10 µM | 1.58 µM | > 10 µM | 1.17 µM
CCN(CC)c1ccc(C(=O)Nc2ccc3nc(N4CCCC4)cc(C)c3c2)cc1 | 3.63 µM | > 10 µM | 3.63 µM | 4.27 µM | 2 µM
CN1CCC(N2CCC(CN(Cc3ccncc3)Cc3c(F)cccc3Cl)CC2)CC1 | 0.603 µM | > 10 µM | 1.17 µM | 1.74 µM | 0.708 µM
COc1cccc(-c2nn(-c3nc(-c4ccccc4)cc(C(F)(F)F)n3)c(-c3cccc(OC)c3)c2Cl)c1 | > 10 µM | > 10 µM | 8.32 µM | > 10 µM | 6.17 µM
COc1ccccc1CN1COc2cc3c(cc2C1)OCO3 | 2.29 µM | > 10 µM | 2.09 µM | 1.91 µM | 1.58 µM
Cc1cc(C)c(NC(=O)OCc2cccc3cccnc23)c(C)c1 | 2.29 µM | > 10 µM | 2.82 µM | > 10 µM | 1.05 µM
CC(C)Nc1nc2nonc2n2cnnc12 | 3.55 µM | > 10 µM | 4.37 µM | 4.47 µM | 1.95 µM
CCNc1nc(C)cc(Nc2ccc(NS(=O)(=O)c3c(C)noc3C)cc2)n1 | 2.51 µM | > 10 µM | 3.47 µM | 5.01 µM | 2.69 µM
COc1ccccc1N(Cc1ccccc1)C1=NC(=[N+](Cc2ccccc2)c2ccccc2OC)c2ccccc21 | 5.5 µM | > 10 µM | 6.03 µM | 4.68 µM | 2.82 µM
Cc1ccccc1C(=O)Cc1ncc[nH]1 | 3.89 µM | > 10 µM | 5.75 µM | 4.9 µM | 2.29 µM
CC(C)c1cc(=O)[nH]c(-n2nc(C3CC3)cc2NC(=O)c2ccc(F)cc2)n1 | 2.82 µM | 10 µM | 6.46 µM | > 10 µM | 0.708 µM
COc1cc(F)c([C@H](C)NC(=O)N(C)Cc2ccco2)cc1OC | 10.7 µM | > 10 µM | > 10 µM | 0.891 µM | 1.86 µM
COc1cc2c(cc1OC)[C@@H](NC(=O)c1cnc(C3(C)OCCO3)s1)CCCC2 | 4.79 µM | > 10 µM | 7.41 µM | 4.79 µM | 2.04 µM
O[C@@]1(CN2CCC(COc3ccc4c(c3)CCC4)CC2)CCCNC1 | 2.51 µM | > 10 µM | 3.47 µM | 6.31 µM | 2.14 µM
CCNC(=O)c1csc(COc2ccc3c(c2)[C@H](c2ccc(C)cc2)N(C(=O)CC(C)C)CC3)n1 | 4.47 µM | > 10 µM | 7.76 µM | 9.77 µM | 3.55 µM
Cc1cc(C)cc(-c2cc3nc(C)cc(N4CCC(C(=O)NCc5cccc(F)c5)CC4)n3n2)c1 | 2.04 µM | > 10 µM | 2.45 µM | 4.37 µM | 1.48 µM
Oc1c([C@@H](c2ccccn2)N2CCCC2)ccc2cccnc12 | 2.34 µM | > 10 µM | 7.76 µM | 3.55 µM | 2.14 µM
Cc1oc(-c2ccc(C(=O)N3CCN(c4ccccc4)CC3)cc2)nc1CN1CCC(C)CC1 | > 10 µM | > 10 µM | 3.39 µM | 2.34 µM | 2.14 µM
C[C@@H](CN)N(C)c1ccnc2cc(Br)cnc12 | 0.447 µM | > 10 µM | 0.562 µM | 0.661 µM | 0.513 µM
CCc1ccc(NC(=O)[C@H](C)N2CCC(NS(=O)(=O)c3cccs3)CC2)cc1 | 2.29 µM | > 10 µM | 4.17 µM | 4.79 µM | 1.15 µM
CC1(C)CCC(Nc2ccc(C(N)=O)nn2)CC1 | > 10 µM | > 10 µM | 0.0871 µM | > 10 µM | 0.49 µM
O=C(c1cc2ccccc2[nH]1)N1CCc2sc(Cl)cc2C1 | > 10 µM | > 10 µM | > 10 µM | 2.95 µM | 7.76 µM
CCn1cc(-c2nc(-c3ccccc3C)no2)c(=O)c2cc(F)c(N3CCOCC3)cc21 | 4.9 µM | > 10 µM | 7.08 µM | > 10 µM | 3.55 µM

Structure (SMILES) | IC50 [1] | IC50 at 72 h [2] | IC50 [3] | IC50 [4] | IC50 [5]
Cn1cncc1CC(=O)Nc1ccnc(NC(=O)OC(C)(C)C)c1 | 2.14 µM | > 10 µM | 3.8 µM | 1.78 µM | 1.23 µM
Cc1nn(-c2ccccc2)c2nc(Cc3ccccc3)nc(N3CCCN(C(=O)NC4CCCCC4)CC3)c12 | > 10 µM | > 10 µM | > 10 µM | 2.75 µM | 5.01 µM
Cc1cc(C)n(-c2nc(Nc3ccc(Cl)cc3)nc(Nc3ccc(Cl)cc3)n2)n1 | 3.63 µM | > 10 µM | > 10 µM | 6.76 µM | 2.19 µM
N#Cc1cccc(-c2n[nH]c3c2CN(c2ccc(-c4ccccc4)nn2)CC3)c1 | 3.09 µM | > 10 µM | 4.79 µM | 2.63 µM | 1.2 µM
Oc1ccc2cc(CN3CCC[C@H](CN4CCCC4)C3)ccc2c1 | 2.63 µM | > 10 µM | 1.74 µM | 2.45 µM | 1.2 µM
CCn1cc(C#N)c(=O)c2cc(F)c(N3CCN(Cc4ccccc4)CC3)cc21 | > 10 µM | > 10 µM | > 10 µM | > 10 µM | > 10 µM
CCCN1C(=O)c2ccccc2N2C(=O)CC[C@@]12C(=O)Nc1ccccc1 | 2.88 µM | > 10 µM | 4.17 µM | 1.66 µM | 1.1 µM
COc1ccc(CNCc2ccc(C)cc2)cc1Cn1ccnc1 | 1.41 µM | > 10 µM | 2.69 µM | 2.88 µM | 1.86 µM
COc1ccc(-c2csc(-n3cc(C4=CCN(CCO)CC4)cn3)n2)cc1 | > 10 µM | > 10 µM | 5.5 µM | > 10 µM | 5.13 µM
COc1cc(C(=O)Nc2[nH]c(=O)ncc2F)ccc1Cl | > 10 µM | > 10 µM | 0.01 µM | 7.76 µM | 0.00589 µM
O=C(N[C@@H](Cn1nccn1)c1ccccc1)c1cc(Br)ccc1Cl | 2.95 µM | > 10 µM | 2.75 µM | > 10 µM | 1.74 µM
O=C(NCc1ccccc1F)C1CCN(c2cncnc2N2CCCC2)CC1 | 7.24 µM | > 10 µM | > 10 µM | 8.71 µM | 3.55 µM
Cc1ccc(NC(=O)N2CCCN(c3ccc(NC(=O)c4cccs4)cc3C(=O)NCc3ccc(F)cc3)CC2)cc1 | > 10 µM | > 10 µM | 7.94 µM | 6.92 µM | 3.63 µM
COc1ccc(CCc2nc(NC(=O)c3nc(C)sc3C)n[nH]2)cc1OC | > 10 µM | > 10 µM | > 10 µM | 0.676 µM | 1.45 µM
CCOC(=O)CCn1cc(F)c(=O)[nH]c1=O | > 10 µM | > 10 µM | 0.0708 µM | > 10 µM | 0.0269 µM
CC[C@H](O)CN1CCC(Nc2ncnc3cc(Cl)ccc23)CC1 | 1.51 µM | > 10 µM | 1.82 µM | 2.95 µM | 1.62 µM
FC(F)(F)C1CN(c2nc(-c3ccccn3)nc3c2CCC3)C1 | 2.29 µM | > 10 µM | 2.45 µM | 2.45 µM | 1.29 µM
CC(C)N1C(=O)NC(=O)C2(Cc3ccccc3N3CCN(Cc4ccccc4)CC32)C1=O (stereo not given) | > 10 µM | > 10 µM | > 10 µM | > 10 µM | 3.98 µM
CC[N+](C)(CC)CCOc1cc(C)c2ccccc2n1 | 2.69 µM | > 10 µM | 4.68 µM | > 10 µM | 2.24 µM
CC[N+](CC)(CC(=O)OC1CC2CCC1(C)C2(C)C)CC(=O)OC1CC2CCC1(C)C2(C)C (stereo not given) | 2.19 µM | > 10 µM | 2.82 µM | 4.68 µM | 1.82 µM
Cc1cc(-c2cc(O)cc(CC[C@H]3CCCCN3)c2)ccn1 | 0.269 µM | > 10 µM | 0.269 µM | 2.95 µM | 0.501 µM
COc1ccc(-[n+]2c(-c3ccc(-c4ccccc4)cc3)cn3c2COCC3)cc1 | 2.09 µM | > 10 µM | 2.4 µM | > 10 µM | 2.14 µM
Cc1cccc2ncnc(N(C)[C@@H](C)Cc3ccc(O)cc3)c12 | 2.82 µM | > 10 µM | 3.09 µM | 2.45 µM | 1.86 µM
COc1ccccc1C1c2[nH]c3ccccc3c2C[C@H]2C(=O)N(CC(O)c3ccccc3)CC(=O)N12 (stereo not given in full) | > 10 µM | > 10 µM | 8.91 µM | 4.47 µM | 3.16 µM
Cc1ccc(Cn2c(=O)c(C(=O)NCc3ccc4c(c3)OCO4)nn(-c3ccc(C(C)C)cc3)c2=O)cc1 | 3.39 µM | > 10 µM | 8.13 µM | > 10 µM | 2.69 µM
